The record followed here is ChEMBL document CHEMBL1130350, “Heteroaryl analogues of AMPA. Synthesis and quantitative structure-activity relationships” (J Med Chem, 1997).

For data set [1], the target named is Glutamate receptor ionotropic kainate.
Description: In vitro binding affinity against Ionotropic glutamate receptor kainate (kainic acid) using [3H]KAIN as radioligand
In data set [2] the target is Glutamate [NMDA] receptor. The data set is described as follows: In vitro binding affinity against N-methyl-D-aspartate glutamate receptor using [3H]-[…] as radioligand. In kind it is protein-complex assay.
The target of data set [3] is Glutamate receptor ionotropic AMPA (Rattus norvegicus).
The species named for a further data set is Rattus norvegicus. Put plainly: Electrophysiological study in rat cortical slice model. In kind it is functional.
Data set [4] is described as follows: pKa value determined by potentiometric titrations. 4.4 is the equivalence volume; initial titrant volume is 9.8. Type of data set: physicochemical.
A short description of data set [5]: pKa value determined by potentiometric titrations. 5.1 is the equivalence volume; initial titrant volume is 9.4. In kind it is physicochemical.
Data set [6] in a line: pKa value determined by potentiometric titrations. 4.6 is the equivalence volume; initial titrant volume is 10.2. Type of data set: physicochemical.
Data set [7] in a line: pKa value determined by potentiometric titrations. 4.5 is the equivalence volume; initial titrant volume is 9.5. Type of data set: physicochemical.
Data set [8] can be described thus: pKa value determined by potentiometric titrations. 4.6 is the equivalence volume; initial titrant volume is 9.5. In kind it is physicochemical.
Data set [9] is described as follows: pKa value determined by potentiometric titrations. 5 is the equivalence volume; initial titrant volume is 9.6. In kind it is physicochemical.
Data set [10] in a line: pKa value determined by potentiometric titrations. 5 is the equivalence volume; initial titrant volume is 9.7. Type of data set: physicochemical.
Data set [11] can be described thus: pKa value determined by potentiometric titrations. 4.9 is the equivalence volume; initial titrant volume is 9.7. In kind it is physicochemical.
Data set [12] in a line: pKa value determined by potentiometric titrations. 5.3 is the equivalence volume; initial titrant volume is 9.8. In kind it is physicochemical.

As to `NC(Cc1c(O)noc1-c1nccs1)C(=O)O` (stereo unspecified), the IC50 was 4.9 µM in data set [1], greater than 100 µM in [2] and 0.094 µM in data set [3]. In the data set listed under Rattus norvegicus, this compound displayed an EC50 of 2.3 µM. Besides, in data set [4], the pKa was less than 2.
For the compound `Cn1nnnc1-c1onc(O)c1CC(N)C(=O)O` (stereo unspecified), the pKa in data set [5] is 3.7. The IC50 in data set [1] is greater than 100 µM; in data set [2], greater than 100 µM; in data set [3] it was 54 µM. The EC50 in the data set listed under Rattus norvegicus was greater than 1000 µM.
Consider `NC(Cc1c(O)noc1-c1nc[nH]n1)C(=O)O` (stereo unspecified), for which the IC50 was 58 µM in [1], greater than 100 µM in data set [2] and 1.5 µM in [3]. Further, the pKa in data set [6] was less than 2.4. Besides, it took 63 µM to reach a half-maximal effect in the data set filed under Rattus norvegicus (EC50).
`Cn1ncnc1-c1onc(O)c1CC(N)C(=O)O` (stereo unspecified): the IC50 in data set [1] is 16 µM; in [2], greater than 100 µM; in data set [3] it was 5.8 µM. The pKa in data set [7] was less than 2.3. Besides, in the data set listed under Rattus norvegicus, the midpoint of the response, the EC50, lay at 93 µM.
Consider `Cn1cnc(-c2onc(O)c2CC(N)C(=O)O)n1` (stereo unspecified), for which the IC50 in data set [1] was greater than 100 µM; in data set [2] it was greater than 100 µM; in data set [3], 0.7 µM. Also, in the data set listed under Rattus norvegicus, the EC50 was found to be 11 µM. Besides, the pKa in data set [8] is less than 2.3.
Consider `Cn1nnc(-c2onc(O)c2CC(N)C(=O)O)n1` (stereo unspecified), for which the IC50 was 41 µM in data set [1] and greater than 100 µM in [2]. For the same compound, in data set [9], the pKa turned out to be 2.9. In the data set listed under Rattus norvegicus, this compound yielded an EC50 of 0.92 µM.
Regarding `NC(Cc1c(O)noc1-c1nn[nH]n1)C(=O)O` (stereo unspecified), the IC50 in data set [1] is greater than 100 µM; in [2], greater than 100 µM; in [3] it was 72 µM. Also, in [10], the pKa is less than 3. The same compound registered an EC50 in the data set listed under Rattus norvegicus greater than 1000 µM.
As to `NC(Cc1c(O)noc1-c1ncc[nH]1)C(=O)O` (stereo unspecified), in data set [11], the pKa was less than 3.4. Further, the IC50 was greater than 100 µM in data set [1], greater than 100 µM in data set [2] and 48 µM in [3]. This compound also registered an EC50 in the data set filed under Rattus norvegicus of 550 µM.
Turning to `Cn1ccnc1-c1onc(O)c1CC(N)C(=O)O` (stereo unspecified), the IC50 is 74 µM in data set [1], greater than 100 µM in data set [2] and greater than 100 µM in [3]. Besides, the pKa in data set [12] is less than 3.4. In the data set filed under Rattus norvegicus, the EC50 was greater than 1000 µM.
In data set [2], `Cc1onc(O)c1CC(N)C(=O)O` [(R,S)-AMPA] returned an IC50 greater than 100 µM. This compound also returned an EC50 in the data set filed under Rattus norvegicus of 5.4 µM.

One may read the IC50 as the concentration that inhibits the measured activity by half. Read a high IC50 as lower potency. What is called EC50 is the midpoint of the concentration-response curve. In general, pKa refers to the pH at which an ionisable group is half protonated.
